Experimental data: BindingDB's records for doi:10.1016/j.bmcl.2020.127004 (Merck, 2020)

How the values were obtained:
[1] = Non-nucleoside inhibition of NS5B polymerase in HCV genotype 1a by Taqman probe based RT-PCR analysis
[2] = Non-nucleoside inhibition of NS5B polymerase in HCV genotype 1b by Taqman probe based RT-PCR analysis
[3] = Non-nucleoside inhibition of NS5B polymerase in HCV genotype 2a by Taqman probe based RT-PCR analysis
[4] = Non-nucleoside inhibition of NS5B polymerase in HCV genotype 2b by Taqman probe based RT-PCR analysis
[5] = Non-nucleoside inhibition of NS5B polymerase in HCV genotype 3a by Taqman probe based RT-PCR analysis
[6] = Non-nucleoside inhibition of NS5B polymerase in HCV genotype 4a by Taqman probe based RT-PCR analysis
[7] = Non-nucleoside inhibition of NS5B polymerase C316Y mutant in HCV genotype 1a by Taqman probe based RT-PCR analysis
[8] = Non-nucleoside inhibition of NS5B polymerase S365A mutant in HCV genotype 1a by Taqman probe based RT-PCR analysis

| SMILES | EC50 [1] [nM] | EC50 [2] [nM] | EC50 [3] [nM] | EC50 [4] [nM] | EC50 [5] [nM] | EC50 [6] [nM] | EC50 [7] [nM] | EC50 [8] [nM] |
| --- | --- | --- | --- | --- | --- | --- | --- | --- |
| CNC(=O)c1c(-c2ccc(F)cc2)oc2cc(N(C)S(C)(=O)=O)c(-c3ccc4nnn(Cc5ccc(F)cc5)c(=O)c4c3)cc12 [US9364482, 44] | 1.7 | 3.9 | 13 | 4 | 0.8 | 1.4 | 12 | 76 |
| CNC(=O)c1c(-c2ccc(F)cc2)oc2cc(N(C)S(C)(=O)=O)c(-c3cc4c(=O)n(Cc5ccc(F)cc5)nnc4cc3F)cc12 [US9364482, 70] | 0.7 | 2.7 | 6.1 | 2.9 | 1.2 | 1.2 | 5.6 | 47 |
| CNC(=O)c1c(-c2ccc(F)cc2)oc2cc(N(C)S(C)(=O)=O)c(-c3cc4c(=O)n(Cc5ccc(F)cc5)nnc4cc3Cl)cc12 [US9364482, 73] | 3 | 5.5 | 15 | 8.8 | 1.5 | 1 | 12 | 42 |
| CNC(=O)c1c(-c2ccc(F)cc2)oc2cc(N(C)S(C)(=O)=O)c(-c3ccc4nnn(C(CO)c5ccc(F)cc5)c(=O)c4c3)cc12 (configuration not stated) | 7.3 | 5.6 | 20 | 6 | 0.9 | 4.5 | 523 | 1130 |
| CNC(=O)c1c(-c2ccc(F)cc2)oc2cc(N(C)S(C)(=O)=O)c(-c3ccc4nc(C)n(Cc5ccc(F)cn5)c(=O)c4c3)cc12 | 1.3 | 2.6 | 11 | 4.2 | 1.7 | 1.6 | 36 | 228 |
| CNC(=O)c1c(-c2ccc(F)cc2)oc2cc(N(C)S(C)(=O)=O)c(-c3ccc4nc(COC)n(Cc5ccc(F)cc5)c(=O)c4c3)cc12 [US9364482, 53] | 2.1 | 2.4 | 8.2 | 3.7 | 0.8 | 0.9 | 4.1 | 19 |
| CNC(=O)c1c(-c2ccc(F)cc2)oc2cc(N(C)S(C)(=O)=O)c(-c3cc4c(=O)n(Cc5ccc(F)cc5)nnc4cc3C)cc12 [US9364482, 72] | 2.3 | 4.4 | 6.6 | 4.7 | 1.1 | 1 | 6.2 | 16 |
| CNC(=O)c1c(-c2ccc(F)cc2)oc2cc(N(C)S(C)(=O)=O)c(-c3ccc4nc(C)n(Cc5ccc(F)cc5)c(=O)c4c3)cc12 [US9364482, 55] | 0.3 | 1.1 | 4.1 | 1.5 | 0.6 | 0.6 | 2.9 | 7.1 |
| CNC(=O)c1c(-c2ccc(F)cc2)oc2cc(N(C)S(C)(=O)=O)c(-c3ccc4c(n3)C(=O)N(c3ccc(F)cc3)CO4)cc12 [US9364482, 2] | 19 | 3.8 | 151 | 19 | 1.5 | 8.4 | 452 | 1360 |
| CNC(=O)c1c(-c2ccc(F)cc2)oc2cc(N(C)S(C)(=O)=O)c(-c3ccc4nc(C)n(Cc5ccc(F)cc5F)c(=O)c4c3)cc12 | 0.5 | 0.8 | 8.3 | 5.4 | 0.9 | 0.7 | 5.4 | 11 |
| CNC(=O)c1c(-c2ccc(F)cc2)oc2cc(N(C)S(C)(=O)=O)c(-c3ccc4nc(C)n(Cc5ccc(F)cc5)c(=O)c4n3)cc12 [US9364482, 68] | 1.1 | 1.6 | 10 | 2.7 | 1 | 2.9 | 36 | 137 |
| CNC(=O)c1c(-c2ccc(F)cc2)oc2cc(N(C)S(C)(=O)=O)c(-c3ccc4nnn([C@H](COC)c5ccc(F)cc5)c(=O)c4c3)cc12 [US9364482, 39] | 1.2 | 2.6 | 12 | 3.9 | 1 | 0.7 | 18 | 68 |
| CNC(=O)c1c(-c2ccc(F)cc2)oc2cc(N(C)S(C)(=O)=O)c(-c3ccc4nc(CNC(C)=O)n(Cc5ccc(F)cc5)c(=O)c4c3)cc12 [US9364482, 54] | 1.1 | 2.8 | 58 | 5.9 | 1.4 | 6.6 | 32 | 8.3 |
| CNC(=O)c1c(-c2ccc(F)cc2)oc2cc(N(C)S(C)(=O)=O)c(-c3ccc4nc(C)n([C@@H](COC)c5ccc(F)cc5)c(=O)c4c3)cc12 | 0.5 | 1.1 | 7.5 | 4.1 | 1.1 | 0.6 | 30 | 17 |
| CNC(=O)c1c(-c2ccc(F)cc2)oc2cc(N(C)S(C)(=O)=O)c(-c3ccc4nc(C)n([C@H](COC)c5ccc(F)cc5)c(=O)c4c3)cc12 | 0.6 | 1.1 | 19 | 11 | 1.6 | 2.4 | 21 | 37 |
| CNC(=O)c1c(-c2ccc(F)cc2)oc2cc(N(C)S(C)(=O)=O)c(-c3ccc4nnn(C(C)c5ccc(F)cc5)c(=O)c4c3)cc12 (configuration not stated) | 2.8 | 2.9 | 9.3 | 5.8 | 0.8 | 1.1 | 15 | 277 |
| CNC(=O)c1c(-c2ccc(F)cc2)oc2cc(N(C)S(C)(=O)=O)c(-c3ccc4nc(C)n(Cc5ccc(F)cc5OC)c(=O)c4c3)cc12 | 1 | 1.5 | 13 | 5 | 1.1 | 2.2 | 44 | 177 |
| CNC(=O)c1c(-c2ccc(F)cc2)oc2cc(N(C)S(C)(=O)=O)c(-c3ccc4ncn(Cc5ccccc5)c(=O)c4c3)cc12 [US9364482, 49] | 3.2 | 3.5 | 18 | 9.4 | 1.2 | 3.5 | 70 | 190 |
| CNC(=O)c1c(-c2ccc(F)cc2)oc2cc(N(C)S(C)(=O)=O)c(-c3ccc4nnn(Cc5ccc(F)cn5)c(=O)c4c3)cc12 [US9364482, 48] | 3.3 | 2.7 | 11 | 5.6 | 1.1 | 2.1 | 29 | 446 |
| CNC(=O)c1c(-c2ccc(F)cc2)oc2cc(N(C)S(C)(=O)=O)c(-c3cc(C)c4nnn(Cc5ccc(F)cc5)c(=O)c4c3)cc12 [US9364482, 74] | 1.8 | 3.3 | 6.1 | 6.8 | 1.4 | 0.8 | 29 | 120 |
| CNC(=O)c1c(-c2ccc(F)cc2)oc2cc(N(C)S(C)(=O)=O)c(-c3ccc4nnn(Cc5ccccc5)c(=O)c4c3)cc12 [US9364482, 42] | 2.3 | 3.5 | 8.8 | 6.2 | 1 | 3 | 68 | 335 |
| CNC(=O)c1c(-c2ccc(F)cc2)oc2cc(N(C)S(C)(=O)=O)c(-c3ccc4c(n3)C(=O)N(Cc3ccc(F)cc3)CO4)cc12 [US9364482, 6] | 1.6 | 1.3 | 4.6 | 19 | 1.8 | 0.3 | 3.5 | 0.7 |
| CNC(=O)c1c(-c2ccc(F)cc2)oc2cc(N(C)S(C)(=O)=O)c(-c3ccc4nnn([C@@H](COC)c5ccc(F)cc5)c(=O)c4c3)cc12 [US9364482, 41] | 4.9 | 5.6 | 16 | 11 | 1.8 | 6 | 292 | 474 |
| CNC(=O)c1c(-c2ccc(F)cc2)oc2cc(N(C)S(C)(=O)=O)c(-c3cc(OC)c4nnn(Cc5ccc(F)cc5)c(=O)c4c3)cc12 [US9364482, 71] | 0.8 | 1.6 | 3.9 | 3.1 | 0.7 | 0.4 | 4.6 | 12 |
